Assay results as given in patent US4150120A, “Ophthalmic” (Takeda Chemical Industries, Ltd., priority 1977, dated 1979).
Where a name gives a salt, the structure may show the parent alone. Read-outs that look alike come from different tables or passages of the source.

Tests used:
cataract (dogs) [1] = type: in vivo, dog
[2] = tested on: acute conjunctivitis (dogs); assay: Treatment of acute conjunctivitis (dogs) by ophthalmic instillation of 0.01% TRH tartrate; type: in vivo, dog
Text: The following examples illustrate the treatment of a case of acute catarrhal conjunctivitis and a case of drug-induced acute conjunctivitis, by ophthalmic instillation of TRH alone.

[3] = tested on: progressive cataract (dogs); design: Evaluation: key to the marks not given beside the values; details: for Relapse: diagnosed after 3 months
cataract (dogs) [4] = type: in vivo, dog; remark: listed apart in the source
Description: 2, 1977. (Treatment) Starting on Feb. 28, 1977 opthalmic instillations of a 0.01% aqueous solution of free TRH were given 3 times a day. (Treatment) Starting on Aug. […] The right eye was treated simultaneously with the aqueous solution of TRH tartrate alone.

[5] = Case 3, left eye, with dexamethasone and flavine-adenine dinucleotide, August 20

## NC(=O)[C@@H]1CCCN1C(=O)[C@H](Cc1cnc[nH]1)NC(=O)[C@@H]1CCC(=O)N1 [TRH tartrate, L-pyroglutamyl-L-histidyl-L-prolinamide]
Cataract (dogs) [1]; Case 1, total cataract, 4 to 5 instillations daily from Feb. 2, on February 28
  pupillary reflex: normal
Cataract (dogs) [1]; Case 1, on February 28
  opacity of pupillary area: reduced opacity
Cataract (dogs) [1]; Case 1, on March 10
  clarity of the cortex of lens (visual examination): improved
[2]; Case 1, acute catarrhal conjunctivitis
  outcome of the case: judged to have been cured
[2]; Case 1, acute catarrhal conjunctivitis, three instillations given every other day, 7th day after start
  findings at examination: neither a hyperemia nor overflowing tears
[2]; Case 2, acute conjunctivitis due to irritation by insecticide, 2 instillations given every other day
  findings at examination: the hyperemia had disappeared and the slightly dilated eye balls had become normal
[2]; Case 2, drug-induced acute conjunctivitis
  outcome of the case: cured
[3]; 0.01% aqueous solution, 3 instillations a day, eye lids pressed after instillation
  day on which responses were elicited (generally, seven cases): third
[3]; Case 1, 2 instillations daily for 3 consecutive days, then discontinued
  result of first course: apparently satisfactory
[3]; Cases 1 and 2, 0.01% solution, 2 instillations daily
  outcome of the case: judged to have been cured
[3]; case 7, serious total cataract (bilateral), 3 instillations daily for 4 days plus TRH.corson injections on 1st and 3rd days
  Evaluation: ++
[3]; case 7, with adjunct TRH.corson injections
  Relapse: None
[3]; case 9, transient central cataract due to traumatic corneitis (left eye), 2 instillations daily
  Evaluation: +++
[3]; cases 3-6 and 8
  Relapse: None
[3]; dog, in vivo
  reaction after each instillation (irritation to the conjunctiva): closed the lids for a while, followed by several blinkings
Cataract (dogs) [4]; Case 3, left eye (immature cortical cataract and corneitis), with 0.02% dexamethasone and 0.05% flavine-adenine dinucleotide, 5 to 6 times daily, August 20
  pannus, left eye: the pannus had disappeared
Cataract (dogs) [4]; [5]
  ciliary congestion, left eye: the ciliary congestion persisted
  pupillary reflex and dilation, left eye: satisfactory
Cataract (dogs) [4]; Case 3, right eye, TRH tartrate solution alone, 5 to 6 times daily, August 20
  lens clarity, right eye: increased clarity in the upper margin of the lens
Cataract (dogs) [4]; Case 3, TRH tartrate solution alone from September 2, September 25
  lens clarity, both eyes: significantly increased clarity
Cataract (dogs) [4]; Case 3, TRH tartrate solution and dexamethasone solution twice daily, September 2
  lens opacity, both eyes: only thinned opacities all over the lens
Cataract (dogs) [4]; dog, in vivo
  side effect at the times of instillation: No side effect was noted

## NC(=O)[C@@H]1CCCN1C(=O)[C@H](Cc1cnc[nH]1)NC(=O)[C@@H]1CCC(=O)N1 [TRH, L-pyroglutamyl-L-histidyl-L-prolinamide]
Cataract (dogs) [4]; Case 2, senile cataract, 0.01% aqueous solution of free TRH 3 times a day from Feb. 28, on April 23
  lens of right eye: the lens cortex of the right eye was remarkably clear
Cataract (dogs) [4]; Case 2, 0.01% free TRH 3 times a day, on April 23
  lens of left eye: the circumstances of lens in the left eye could be delineated
Cataract (dogs) [4]; dog, in vivo
  side effect during the instillation period: No side effect was observed
